Patent US8710045B2, “Agents for preventing and treating disorders involving modulation of the ryanodine receptors” (The Trustees of Columbia University in the City of New York, priority 2004, dated 2014)
Several values for one entry are separate records, joined by “and”; a condition that tells them apart may be missing. Equal entries are not always repeated.

Key:
RyR = RyR immunoprecipitation from whole brain microsomes of exercised mice; format: in vivo, mouse; settings: 21 days
Procedure: Tissue lysates were prepared by homogenizing the tissue (e.g., brain, cardiac, muscle) with Tissuemiser in 0.7 ml lysis buffer (pH 7.4, 10 mM HEPES, 1 mM EDTA, 20 mM NaF, 2 mM Na3 VO4, 320 mM sucrose, and protease inhibitors) and centrifuged for 15 min at 4,000×g at 4° C. The supernatant was then centrifuged for 15 min at 10,000×g at 4° C. For brain homogenates, the supernatant was centrifuged at 50,000×g at 4° C. for 30 minutes, and the pellet (microsomes) was resuspended in homogenization buffer which was supplemented with 0.9% NaCl. For brain tissue, the resuspended pellet was used for immunoprecipitation of RyR. For cardiac and muscle tissue homogenates, the supernatant of the 10,000×g spin was used for immunoprecipitation of the RyR. Protein concentrations were measured by Bradford protein assay. The sample was frozen at −80° C. until use.
100 μg of microsomes were brought to a volume of 500 μl with modified RIP A buffer (50 mM Tris-HCl (PH 7.4), 0.9% NaCl, 5.0 mM NaF, 1.0 mM Na3VO4, 0.5% TritonX100, and protease inhibitors). […] The sample was incubated with 40 μl of Protein A Sepharose beads and rotated for 1 hr at 4° C. […]
Ryanodine receptor (types 1 and 2) was immunoprecipitated from whole brain microsomes. Immunoprecipitates were separated by 4-20% PAGE and analyzed for total RyR, PKA phosphorylated RyR, and calstabin.

[1] = tested on: L-type calcium channel current; experiment: S107 specificity: L-type calcium channel current; settings: 500 nM
C57BL/6J mice = experiment: S107 chronic exercise model: treadmill run to exhaustion; format: in vivo, mouse
Procedure: Mice were allowed to recover for three days prior to the initiation of exercise. Standard food and water were provided ad libitum through the experiment.
Chronic Exercise Model: The daily swimming protocol consisted of twice-daily swimming sessions separated by a one-hour rest period. After an initial conditioning regimen lasting 5 days during which the swimming sessions were increased in 10 minute increments from 40 minutes each to 80 minutes each, the swimming sessions thereafter lasted 90 minutes each. A 30 cm wide by 30 cm long opaque acrylic tank was filled with tap water to a depth of at least 20 cm. Water was circulated and warmed to 32-34° C. using a separate reservoir with heating element, thermostat, and pump. 8 mice, balanced pair-wise with respect to genotype and/or treatment group, swam at any one time in the tank.
Treadmill performance: A Columbus Instruments (Columbus, Ohio) treadmill (Model: Exer-6M Treadmill with Treadmill Shock Detection Unit) with 6 lanes was used to run the mice. Mice were placed in their respective lanes with the shocking apparatus turned off and allowed to adjust to the surroundings for 10 minutes. The forward half of the treadmill was covered with aluminum foil to block out light and a desk lamp illuminated the shocking area at the rear of the treadmill. After the adjustment period, the treadmill was set to 10 meters/min, and the mice were trained to run with gentle prodding for 6 minutes. The electric current was then turned on, and the number of shocks delivered during the next two three minute intervals (training period) were recorded. The shock counter was then reset and visits to the shocking area and shocks delivered to each mouse were recorded at three-minute intervals until the end of the experiment. At regular intervals, the speed of the treadmill was ramped up from the initial 10 m/min to 24 m/min. The speed was increased no more than 2 m/min every 6 minutes. Task failure was defined when a mouse could not continue running despite gentle prodding.
Age and sex-matched WT mice were randomized to receive osmotic pumps containing either S107 or vehicle. […] Exercise capacity was assessed once a week by a level treadmill run to exhaustion during the nocturnal cycle of the mouse. The mice were not exercised on the same day as treadmill assessments. […] These studies are complicated by the training effect of repeated exercise which leads to improved performance due to enhanced musculature. Isometric force production was measured in EDL muscles in a tissue bath during field stimulation.

EDL muscle = experiment: Isometric force production of isolated EDL muscle after chronic exercise; format: in vivo, mouse; settings: stimulation frequencies greater than 80 Hz
Procedure: Intact muscle preparation: Immediately following a forced exercise session, each mouse was sacrificed by carbon dioxide inhalation and cervical dislocation. Blood was removed by intracardiac aspiration, spun down, and plasma was eluted and frozen in liquid nitrogen. 4-0 silk sutures were tied to the proximal and distal tendons of intact EDL and soleus muscles and the muscles were dissected free and placed in a modified Ringer's solution (140 mM NaCl, 5 mM KCl, 2.0 mM CaCl2, 2 mM MgCl2, 10 mM HEPES, 10 mM glucose, pH 7.4) bubbled with 100% O2. […] After perfusion with 35C Ringer's and equilibration for 10 minutes at a resting tension of 1 cN and a brief potentiation protocol, force-frequency relationships were measured, with 60 second delays between 800 ms stimulations at 40-150 Hz. […] Following stimulation, muscle length was determined at resting tension, and muscle dry weight was recorded.
Age and sex-matched WT mice were randomized to receive osmotic pumps containing either S107 or vehicle. […] Exercise capacity was assessed once a week by a level treadmill run to exhaustion during the nocturnal cycle of the mouse. […] Isometric force production was measured in EDL muscles in a tissue bath during field stimulation.

hERG current = hERG current (Homo sapiens, UniProt Q12809); experiment: hERG current, PatchXpress 7000A automatic parallel patch clamp in hERG-transfected HEK 293 cells (Example 6); settings: for Individual Data (% Inhibition): single cell
In short: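 Stable hERG-HEK293 cells on automated patch clamp; from −80 mV holding, +20 mV for 2 s then −50 mV for 2 s, every 10 s, peak tail current measured.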

calpain = experiment: Calpain activity in mdx mouse muscular dystrophy model during exercise; format: in vivo; settings: mdx mice, 0.125 mg/kg/h for 28 days, downhill treadmill
Procedure: After treatment, the mice were subjected to downhill (14° angel) treadmill running for 30 min at 18 m/min. Immediately after the exercise, the animals were sacrificed and the skeletal muscles were harvested.
Preparation of EDL Homogenates: EDL muscles homogenates were prepared in 0.5 ml of homogenization buffer (20 mM NaF, 10 mM Tris-maleate, pH7.2+protease inhibitors). […] sarcoplasmic reticulum (CSR) fractions were obtained by centrifuging the homogenates at 50,000×g for 30 min. Homogenates were centrifuged at 4000×g for 20 min and the supernatants were centrifuged for 20 min at 10000×g. Aliquots of the homogenates were assayed for protein concentration and stored at −80° C.
Calpain Activity Assay: Calpain activity of EDL homogenates (30 μg) were measured using a Calpain Activity Assay kit (Calbiochem). The assay utilizes a synthetic calpain substrate, suc-LLVY-AMC. AMC is released upon cleavage with calpain and is measured fluorometrically. Assays are performed with both an activation and an inhibition buffer to determine specific calpain activity in the sample.

hERG current, sequence (Q12809 whole entry): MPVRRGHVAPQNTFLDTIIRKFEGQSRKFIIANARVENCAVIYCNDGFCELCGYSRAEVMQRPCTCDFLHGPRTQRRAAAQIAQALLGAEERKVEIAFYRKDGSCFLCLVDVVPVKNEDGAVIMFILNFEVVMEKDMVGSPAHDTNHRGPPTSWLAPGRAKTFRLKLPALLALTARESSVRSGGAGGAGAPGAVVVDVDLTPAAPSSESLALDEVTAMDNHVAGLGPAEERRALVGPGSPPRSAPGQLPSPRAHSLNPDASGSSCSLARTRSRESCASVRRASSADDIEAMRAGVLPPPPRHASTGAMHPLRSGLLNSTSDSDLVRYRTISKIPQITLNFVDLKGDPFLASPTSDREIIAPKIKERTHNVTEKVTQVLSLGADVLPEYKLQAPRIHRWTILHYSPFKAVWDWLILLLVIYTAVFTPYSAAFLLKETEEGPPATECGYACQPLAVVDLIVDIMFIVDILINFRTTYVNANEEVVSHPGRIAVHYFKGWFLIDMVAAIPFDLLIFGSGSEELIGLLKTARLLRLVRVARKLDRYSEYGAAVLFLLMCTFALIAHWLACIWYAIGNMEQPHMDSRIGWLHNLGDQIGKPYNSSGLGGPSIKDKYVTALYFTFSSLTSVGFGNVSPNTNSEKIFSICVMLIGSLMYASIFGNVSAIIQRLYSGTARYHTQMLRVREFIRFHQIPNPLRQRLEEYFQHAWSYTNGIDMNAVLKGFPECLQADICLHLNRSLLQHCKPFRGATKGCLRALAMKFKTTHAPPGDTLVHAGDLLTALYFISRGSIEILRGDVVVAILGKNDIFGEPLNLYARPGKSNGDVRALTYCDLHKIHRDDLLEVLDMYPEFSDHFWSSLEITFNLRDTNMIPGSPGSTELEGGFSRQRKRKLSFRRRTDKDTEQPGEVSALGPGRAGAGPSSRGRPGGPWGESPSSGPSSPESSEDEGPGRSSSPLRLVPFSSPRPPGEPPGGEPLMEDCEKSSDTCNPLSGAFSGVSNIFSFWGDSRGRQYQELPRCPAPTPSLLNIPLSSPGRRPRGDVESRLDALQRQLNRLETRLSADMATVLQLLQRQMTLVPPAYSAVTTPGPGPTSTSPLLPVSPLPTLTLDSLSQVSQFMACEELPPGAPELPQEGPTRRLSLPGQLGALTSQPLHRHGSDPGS

SMILES: COc1ccc2c(c1)CN(C)CCS2 [S107]
- binding of calstabin to RyR in whole brain microsomes (RyR): restores the binding of calstabin to RyR
- effect on L-type calcium channel current [1]: not to affect
- acute effect on WT treadmill exercise performance (C57BL/6J mice; 2.5 ug/hr osmotic pump, WT mice): no acute effect
- treadmill exercise capacity (time to failure) vs vehicle (C57BL/6J mice; Day 21, WT mice, p<0.05): relatively protected against a decline in treadmill exercise capacity
- treadmill performance (C57BL/6J mice; mice deficient in calstabin1): failed to improve treadmill performance
- body weight (C57BL/6J mice; throughout trial): did not result in a change
- EDL isometric force production (EDL muscle): increased force production
- Mean % hERG Inhibition (hERG current; 0.01 μM): 2.9%
- Individual Data (% Inhibition) (hERG current; 0.01 μM, listed as ARM107, 0.01 µM): 1.7% and 4.0%
- Mean % hERG Inhibition (hERG current; 0.1 μM): 4.0%
- Individual Data (% Inhibition) (hERG current; 0.1 μM, listed as ARM107, 0.1 µM): 3.1% and 4.8%
- Mean % hERG Inhibition (hERG current; 1 μM): 6.2%
- Individual Data (% Inhibition) (hERG current; 1 μM, listed as ARM107, 1 µM): 2.0% and 10.4%
- Mean % hERG Inhibition (hERG current; 10 μM): 32.1%
- Individual Data (% Inhibition) (hERG current; 10 μM, listed as ARM107, 10 µM): 24.2% and 39.9%
- hERG current inhibition at the highest concentration tested (hERG current; highest concentration tested (10 μM)): less than 50%
- calpain activity (calpain): reduces calpain activity
